Assay [1] has as its target T1, LRRK2 Ser935 phosphorylation in SH-SY5Y cells over-expressing recombinant full length LRRK2 (Homo sapiens, UniProt Q5S007).
T1 construct: A BacMam virus expressing full length recombinant LRRK2 was purchased from Invitrogen; host or cells: SH-SY5Y human neuroblastoma cells transduced with BacMam LRRK2 virus
The assay is described as follows: Recombinant cellular LRRK2 AlphaScreen assay. Format: cell-based. Conditions: human neuroblastoma SH-SY5Y cells, BacMam full length LRRK2, 60 minutes with compound, read-out: pIC50 in the recombinant cellular LRRK2 AlphaScreen assay (converted). The method, boiled down:
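SH-SY5Y cells transduced with BacMam full-length human LRRK2 (MOI 50) for 24 h, then treated with compound (top final 10 μM) for 60 min at 37° C. Lysate pSer935 LRRK2 quantified by AlphaScreen using anti-pS935 and total-LRRK2 antibodies. Values from sigmoidal dose-response fit.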
A general note: Alpha assays give light when donor and acceptor beads are brought close together.

Assay [2] has as its target T2, full length G2019 human LRRK2 (Homo sapiens, UniProt Q5S007, R50H).
T2 construct: made in house; host or cells: HEK293 6E cells transduced with BacMam virus (virus generated in Sf9 cells)
The assay is described as follows: Full length G2019 human LRRK2 Inhibition Mass Spectrometry assay. The class given is biochemical. The note with it: 25 nM LRRK2 enzyme, 25 uM LRRKtide, 2 mM ATP; RapidFire mass spectrometry; read-out: pIC50 in the full length G2019 human LRRK2 Inhibition Mass Spectrometry assay (converted). From the text:
a. Full Length G2019 Human LRRK2 Inhibition Mass Spectrometry Assay
This assay for Leucine Rich Repeat Kinase 2 (LRRK2) inhibition is based on the direct measurement of the peptide ‘LRRKtide’ (LRRKtide: RLGRDKYKT*LRQIRQ and “*” refers to the site of phosphorylation.) and phosphorylated ‘LRRKtide’ using a high throughput RapidFire mass spectrometry assay. Inhibitors are compounds that reduce the conversion of LRRKtide to phospho-LRRKtide.
Human G2019 LRRK2 Plasmid Preparation
Primers used for PCR cloning: • pHTBV-F:SEQ ID No: 1 • LRRK2 wt-F1:SEQ ID No: 2 • LRRK2 wt-R1: SEQ ID No: 3 • LRRK2 wt-F2: SEQ ID No: 4 • LRRK2 wt-R2: SEQ ID No: 5 • LRRK2 wt-F3:SEQ ID No: 6 • pHTBV-R: SEQ ID No: 7 pHTBV1-N-Flag-hu LRRK2 was generated by PCR amplifying the full length LRRK2 sequence with N terminal Flag tag from pcDNA3.1(+)_Human_LRRK2 (NCBI Reference Sequence: NP_940980.3) with the primers described above, and cloned into pHTBV1mcs3 vector between BamHI and KpnI sites.
The G2019 full length Flag-LRRK2 coding sequence is SEQ ID No: 8.
The translated amino acid sequence for human G2019 full length N terminal flag tagged LRRK2 protein is SEQ ID No: 9.
Protein Expression & Purification a) Expression of Flag Tagged Full Length G2019 Human LRRK2
HEK293 6E cells were incubated in a 37° C. incubator with a humidified atmosphere of 5% CO2 on an orbital shaker rotating at 110 rpm. On the day of transduction, the cell viability was higher than 98% and the cell density was in the range of 1×10^6˜1.5×10^6 cells/ml. HEK293 6E cells were centrifuged at 1,000 rpm for 10 min, and then the cells were resuspended in fresh Freestyle 293 expression medium (Invitrogen: 12338) with 0.1% F-68(Invitrogen: 24040-032) but without antibiotics (G418) at density of 1×10^6 cells/ml. BacMam virus with Flag-hu LRRK2 (genotypically normal) gene was centrifuged at 40,000 g for 2 hours, then resuspended in fresh Freestyle 293 expression medium. The resuspended virus was added into the cells in at MOI of 10. The cells were incubated in a 37° C. incubator with a humidified atmosphere of 5% CO2 in air on an orbital shaker rotating at 110 rpm. Cultures were harvested at approximately 48 hours post-transduction by centrifugation at 4,000 rpm for 20 min and pellets were frozen for purification. […]
b) Purification of Flag Tagged Full Length G2019 Human LRRK2
The suspended cells were lysed by sonication on ice for 30 min (2 secs on/4 sec off, 20% amplitude), and centrifuged at 10,000 rpm for 30 minutes at 4° C. The supernatant was incubated with 1 mL per litre of cell culture of anti-Flag magnetic beads (Sigma-Aldrich: M8823) at 4° C. for 3 hours, then the beads were washed by 5 mL (5 column volume) binding buffer (50 mM Tris pH7.5@ 4 C, 500 mM NaCl, 0.5 mM EDTA, 0.1% TritonX-100, 10% glycerol, freshly add 2 mM DTT) for three times. The Flag tagged LRRK2 proteins were eluted by Elution buffer (50 mM Tris pH7.5@ 4 C, 500 mM NaCl, 0.5 mM EDTA, 0.1% TritonX-100, 10% glycerol, freshly add 2 mM DTT, 250 ug/ml Flag peptide (Sigma-Aldrich:F3290)) at 4° C. for 2 hours. Flag peptide was removed by Zeba Spin Desalting Columns, 7K MWCO (Thermo-Fisher: 89893) and the buffer of eluted LRRK2 proteins was exchanged into Storage Buffer (50 mM Tris pH7.5@4 C, 150 mM NaCl, 0.5 mM EDTA, 0.02% Triton X-100, 2 mM DTT and 50% Glycerol) using Amicon Ultra Centrifugal Filter Units (100 kD) (Merck: UFC910096). Fractions containing LRRK2 proteins were pooled, aliquoted and stored at −80° C. Protein concentration was determined by Bradford protein assay, and protein purity was analyzed by NuPAG Novex 4-12% Bis-Tris Protein Gels (Invitrogen: NP0322BOX).
Assay Protocol • 1) A 10 mM test compound was dissolved in 100% DMSO and serially diluted 1 in 4. 100 nL of this dilution series was then added to a 384 well, v bottom polypropylene plate, excluding columns 6 and 18. 100 nL of DMSO was added to columns 6 and 18 as controls wells. […]

Where a name gives a salt, the structure may show the parent alone.

T1 sequence (Q5S007 whole entry): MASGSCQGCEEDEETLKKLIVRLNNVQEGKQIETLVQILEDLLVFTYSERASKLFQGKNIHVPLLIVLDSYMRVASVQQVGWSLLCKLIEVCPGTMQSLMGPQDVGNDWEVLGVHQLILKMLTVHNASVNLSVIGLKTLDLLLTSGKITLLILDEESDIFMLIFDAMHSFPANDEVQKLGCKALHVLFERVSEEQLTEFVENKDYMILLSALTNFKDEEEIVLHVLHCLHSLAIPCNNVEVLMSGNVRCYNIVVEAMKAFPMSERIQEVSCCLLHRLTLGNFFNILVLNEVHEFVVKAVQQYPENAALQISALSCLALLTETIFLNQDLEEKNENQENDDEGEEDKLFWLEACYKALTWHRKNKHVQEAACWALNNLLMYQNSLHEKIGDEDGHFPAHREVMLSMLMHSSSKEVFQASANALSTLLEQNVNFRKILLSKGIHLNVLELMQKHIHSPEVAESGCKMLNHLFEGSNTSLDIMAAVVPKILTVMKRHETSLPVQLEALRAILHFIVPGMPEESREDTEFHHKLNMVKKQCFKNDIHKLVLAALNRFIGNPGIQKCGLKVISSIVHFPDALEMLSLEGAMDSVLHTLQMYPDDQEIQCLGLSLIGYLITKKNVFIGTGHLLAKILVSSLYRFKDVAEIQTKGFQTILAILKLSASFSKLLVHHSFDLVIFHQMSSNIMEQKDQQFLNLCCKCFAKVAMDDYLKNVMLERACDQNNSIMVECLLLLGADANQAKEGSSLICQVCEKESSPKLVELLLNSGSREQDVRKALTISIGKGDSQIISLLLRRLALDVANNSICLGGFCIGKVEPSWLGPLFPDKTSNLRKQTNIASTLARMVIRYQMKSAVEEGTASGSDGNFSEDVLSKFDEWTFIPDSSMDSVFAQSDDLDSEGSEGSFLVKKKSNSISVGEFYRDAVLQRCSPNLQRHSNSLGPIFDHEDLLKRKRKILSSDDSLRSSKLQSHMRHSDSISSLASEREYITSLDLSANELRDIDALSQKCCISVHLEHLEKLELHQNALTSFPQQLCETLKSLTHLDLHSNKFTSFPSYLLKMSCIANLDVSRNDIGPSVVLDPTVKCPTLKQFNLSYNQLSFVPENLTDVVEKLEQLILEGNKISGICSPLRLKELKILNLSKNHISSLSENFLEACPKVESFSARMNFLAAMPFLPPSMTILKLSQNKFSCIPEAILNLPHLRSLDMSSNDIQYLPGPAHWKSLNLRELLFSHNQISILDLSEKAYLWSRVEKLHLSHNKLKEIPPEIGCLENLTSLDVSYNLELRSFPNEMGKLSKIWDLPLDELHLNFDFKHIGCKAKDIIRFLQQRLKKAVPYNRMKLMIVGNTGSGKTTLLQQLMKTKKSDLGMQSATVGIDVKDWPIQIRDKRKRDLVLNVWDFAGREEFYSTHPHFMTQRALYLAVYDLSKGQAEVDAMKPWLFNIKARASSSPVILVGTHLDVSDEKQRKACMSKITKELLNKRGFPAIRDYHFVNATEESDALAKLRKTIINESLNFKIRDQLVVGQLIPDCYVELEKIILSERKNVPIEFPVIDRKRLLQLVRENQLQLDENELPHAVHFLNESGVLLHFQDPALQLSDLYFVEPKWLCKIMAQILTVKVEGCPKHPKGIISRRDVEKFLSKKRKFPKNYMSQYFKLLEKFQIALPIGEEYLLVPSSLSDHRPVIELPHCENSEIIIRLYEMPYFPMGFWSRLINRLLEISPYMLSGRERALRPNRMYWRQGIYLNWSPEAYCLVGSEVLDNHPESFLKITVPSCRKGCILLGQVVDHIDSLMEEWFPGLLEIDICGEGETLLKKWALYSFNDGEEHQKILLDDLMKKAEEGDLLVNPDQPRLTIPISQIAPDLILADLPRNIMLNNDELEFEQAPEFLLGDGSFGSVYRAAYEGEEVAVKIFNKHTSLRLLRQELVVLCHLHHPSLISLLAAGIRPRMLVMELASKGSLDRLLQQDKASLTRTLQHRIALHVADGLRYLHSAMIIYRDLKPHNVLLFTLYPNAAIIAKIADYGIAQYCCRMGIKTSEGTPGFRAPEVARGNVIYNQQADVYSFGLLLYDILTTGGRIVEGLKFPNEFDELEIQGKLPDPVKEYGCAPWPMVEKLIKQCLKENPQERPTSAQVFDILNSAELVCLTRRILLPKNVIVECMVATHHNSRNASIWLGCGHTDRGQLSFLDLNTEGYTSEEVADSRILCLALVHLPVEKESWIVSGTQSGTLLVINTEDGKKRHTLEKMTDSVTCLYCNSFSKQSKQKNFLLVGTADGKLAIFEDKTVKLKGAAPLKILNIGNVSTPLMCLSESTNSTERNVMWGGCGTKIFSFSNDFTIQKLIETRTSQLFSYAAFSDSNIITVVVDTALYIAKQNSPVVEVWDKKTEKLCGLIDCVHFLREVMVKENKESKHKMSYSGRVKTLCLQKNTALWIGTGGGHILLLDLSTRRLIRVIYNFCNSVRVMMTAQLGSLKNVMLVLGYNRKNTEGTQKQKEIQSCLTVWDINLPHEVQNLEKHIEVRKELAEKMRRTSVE
T2 sequence (Q5S007 with tags, fused parts or gaps R50H): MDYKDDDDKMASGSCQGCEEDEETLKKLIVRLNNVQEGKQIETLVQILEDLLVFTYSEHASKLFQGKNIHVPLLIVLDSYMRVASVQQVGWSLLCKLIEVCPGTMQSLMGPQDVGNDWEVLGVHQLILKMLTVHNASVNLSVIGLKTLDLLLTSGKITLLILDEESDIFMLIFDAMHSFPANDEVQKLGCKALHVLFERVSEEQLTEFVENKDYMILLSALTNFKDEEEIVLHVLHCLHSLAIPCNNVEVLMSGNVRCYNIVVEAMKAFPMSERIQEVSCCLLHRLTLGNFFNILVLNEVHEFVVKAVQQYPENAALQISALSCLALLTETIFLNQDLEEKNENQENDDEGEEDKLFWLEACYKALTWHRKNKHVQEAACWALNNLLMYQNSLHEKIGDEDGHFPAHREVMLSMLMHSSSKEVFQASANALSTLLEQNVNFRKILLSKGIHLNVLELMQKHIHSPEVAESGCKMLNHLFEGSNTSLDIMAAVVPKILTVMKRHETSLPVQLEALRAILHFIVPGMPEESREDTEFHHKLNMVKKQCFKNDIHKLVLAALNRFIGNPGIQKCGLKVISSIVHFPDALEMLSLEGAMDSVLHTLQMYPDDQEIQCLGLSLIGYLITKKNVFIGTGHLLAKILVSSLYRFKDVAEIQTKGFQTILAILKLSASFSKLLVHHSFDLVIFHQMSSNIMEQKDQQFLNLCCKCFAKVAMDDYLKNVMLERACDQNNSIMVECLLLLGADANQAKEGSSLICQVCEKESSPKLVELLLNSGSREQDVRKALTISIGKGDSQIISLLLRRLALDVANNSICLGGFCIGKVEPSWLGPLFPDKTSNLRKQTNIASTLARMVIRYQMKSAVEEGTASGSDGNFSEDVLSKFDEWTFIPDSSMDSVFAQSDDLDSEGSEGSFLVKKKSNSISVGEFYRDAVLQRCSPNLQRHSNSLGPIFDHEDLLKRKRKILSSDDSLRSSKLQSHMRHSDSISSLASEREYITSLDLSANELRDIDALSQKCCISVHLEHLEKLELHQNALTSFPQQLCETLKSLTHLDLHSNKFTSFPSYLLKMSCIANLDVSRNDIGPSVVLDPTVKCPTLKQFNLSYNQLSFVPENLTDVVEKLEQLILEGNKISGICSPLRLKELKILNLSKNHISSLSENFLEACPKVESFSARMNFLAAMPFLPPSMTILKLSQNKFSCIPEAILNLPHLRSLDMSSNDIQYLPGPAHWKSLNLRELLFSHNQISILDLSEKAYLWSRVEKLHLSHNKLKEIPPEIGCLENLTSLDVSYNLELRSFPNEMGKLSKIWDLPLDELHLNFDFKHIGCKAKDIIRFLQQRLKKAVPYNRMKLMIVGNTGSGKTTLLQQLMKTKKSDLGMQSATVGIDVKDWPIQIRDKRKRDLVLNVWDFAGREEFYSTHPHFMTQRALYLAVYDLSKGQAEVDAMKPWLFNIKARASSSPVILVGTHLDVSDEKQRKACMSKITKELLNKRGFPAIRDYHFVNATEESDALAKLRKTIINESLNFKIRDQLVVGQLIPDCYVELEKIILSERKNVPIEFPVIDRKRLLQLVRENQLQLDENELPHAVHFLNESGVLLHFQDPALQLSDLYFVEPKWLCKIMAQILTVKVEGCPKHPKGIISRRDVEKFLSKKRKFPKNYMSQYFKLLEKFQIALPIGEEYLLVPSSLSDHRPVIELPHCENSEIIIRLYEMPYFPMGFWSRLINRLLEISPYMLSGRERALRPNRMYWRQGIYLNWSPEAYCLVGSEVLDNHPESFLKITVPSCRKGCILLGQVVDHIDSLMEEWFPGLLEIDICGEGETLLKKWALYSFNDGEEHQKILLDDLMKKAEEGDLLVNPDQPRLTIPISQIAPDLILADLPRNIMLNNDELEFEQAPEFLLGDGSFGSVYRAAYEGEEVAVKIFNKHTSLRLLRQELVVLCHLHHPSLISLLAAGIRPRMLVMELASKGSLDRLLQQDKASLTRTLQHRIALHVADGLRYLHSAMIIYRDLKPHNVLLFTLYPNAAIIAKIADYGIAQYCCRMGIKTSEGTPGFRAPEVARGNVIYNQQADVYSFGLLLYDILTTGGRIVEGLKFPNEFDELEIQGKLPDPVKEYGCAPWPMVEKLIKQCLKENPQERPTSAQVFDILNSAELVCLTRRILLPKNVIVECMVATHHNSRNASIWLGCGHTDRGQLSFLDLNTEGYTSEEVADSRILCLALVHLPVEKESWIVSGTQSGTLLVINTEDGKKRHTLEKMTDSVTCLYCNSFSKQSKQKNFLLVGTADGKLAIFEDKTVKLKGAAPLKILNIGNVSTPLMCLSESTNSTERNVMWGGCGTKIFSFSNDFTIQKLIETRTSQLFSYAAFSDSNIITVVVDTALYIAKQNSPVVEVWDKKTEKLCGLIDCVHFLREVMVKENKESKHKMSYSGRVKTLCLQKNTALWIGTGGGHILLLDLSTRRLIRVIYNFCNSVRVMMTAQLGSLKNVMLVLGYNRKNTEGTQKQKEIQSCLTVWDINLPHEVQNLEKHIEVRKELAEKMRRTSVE

On to `COc1nc(N2C[C@H]3C[C@@H]2CO3)cc(-n2ncc3cc(C)c(C4C5CN([C@H]6CCOC6)CC54)cc32)n1` (stereo partly drawn) [Example E175, (1R,4R)-5-(2-methoxy-6-(5-methyl-6-(3-((S)-tetrahydrofuran-3-yl)-3-azabicyclo[3.1.0]hexan-6-yl)-1H-indazol-1-yl)pyrimidin-4-yl)-2-oxa-5-azabicyclo[2.2.1]heptane], for which the IC50 in assay [1] is not above 1 µM; in assay [2], not above 0.1 µM.
Turning to `COC(=O)CCN1CCC(c2cc3c(cnn3-c3cc(N4C[C@@H]5C[C@H]4CO5)nc(C)n3)cc2C)CC1` [Example E163, Methyl 3-(4-(1-(6-((1S,4S)-2-oxa-5-azabicyclo[2.2.1]heptan-5-yl)-2-methylpyrimidin-4-yl)-5-methyl-1H-indazol-6-yl)piperidin-1-yl)propanoate], in assay [2], the IC50 was not above 0.1 µM.
Consider `Cc1nc(N2C[C@]3(CO)C[C@H]2CO3)cc(-n2ncc3cc(C)c(C4CCN([C@H]5CCOC5)CC4)cc32)n1` [Example E143, ((1S,4S)-5-(2-methyl-6-(5-methyl-6-(1-((S)-tetrahydrofuran-3-yl)piperidin-4-yl)-1H-indazol-1-yl)pyrimidin-4-yl)-2-oxa-5-azabicyclo[2.2.1]heptan-1-yl)methanol], for which the values for the IC50 in assay [1] and in assay [2] were not above 1 µM and not above 0.1 µM, respectively.
Consider `Cc1nc(N2C[C@H]3C[C@@H]2CO3)cc(-n2ncc3cc(C)c(C4CCN(CCC(=O)O)CC4F)cc32)n1` (single isomer, unassigned) [Example E154], for which the IC50 in assay [2] was not above 0.1 µM.
In the case of `Cc1nc(N2C[C@H]3C[C@@H]2CO3)cc(-n2ncc3cc(C)c(C4CCN(C5COCC5O)CC4)cc32)n1` (single isomer, unassigned) [Example E171], the IC50 in assay [2] is not above 0.1 µM.
Consider `COc1nc(N2CC3(CO)CC2CO3)cc(-n2ncc3cc(C)c(C4CCN(C5COC5)CC4)cc32)n1` (centres unmarked) [Example E167, (5-(2-methoxy-6-(5-methyl-6-(1-(oxetan-3-yl)piperidin-4-yl)-1H-indazol-1-yl)pyrim-idin-4-yl)-2-oxa-5-azabicyclo[2.2.1]heptan-1-yl)methanol], for which the IC50 in assay [1] and in assay [2] was not above 0.01 µM in each case.
In the case of `Cc1nc(N2CC3OCC2C3O)cc(-n2ncc3cc(C)c(C4CCN([C@H]5CCOC5)CC4)cc32)n1` (single isomer, unassigned) [Example E176, TFA Salt], the IC50 in assay [1] is not above 1 µM; in assay [2], not above 0.1 µM.
Consider `Cc1nc(N2C[C@@H]3C[C@H]2CO3)cc(-n2ncc3cc(C)c(C4CCN(C5CCOC5)CC4F)cc32)n1` (single isomer, unassigned) [Example E150], for which, in assay [2], the IC50 was not above 0.1 µM.
On the same count and under the same terms, the result for `Cc1nc(N2C[C@H]3C[C@@H]2CO3)cc(-n2ncc3cc(C)c(C4CCN(C5CCOC5)CC4F)cc32)n1` (single isomer, unassigned) [Example E148] reads not above 0.1 µM.
For the compound `Cc1nc(N2C[C@@]3(CO)C[C@@H]2CO3)cc(-n2ncc3cc(C)c(C4CCOCC4)cc32)n1` [Example E173, ((1R,4R)-5-(2-methyl-6-(5-methyl-6-(tetrahydro-2H-pyran-4-yl)-1H-indazol-1-yl)pyrimidin-4-yl)-2-oxa-5-azabicyclo[2.2.1]heptan-1-yl)methanol], the IC50 in assay [2] is not above 0.1 µM.
Still for that read-out and setting: the result for `Cc1nc(N2CC3(CO)CC2CO3)cc(-n2ncc3cc(C)c(C4CCN(C5COC5)CC4)cc32)n1` (centres unmarked) [Example E166, (5-(2-methyl-6-(5-methyl-6-(1-(oxetan-3-yl)piperidin-4-yl)-1H-indazol-1-yl)pyrimid-in-4-yl)-2-oxa-5-azabicyclo[2.2.1]heptan-1-yl)methanol] reads not above 0.1 µM.
On to `COc1nc(N2C[C@H]3C[C@@H]2CO3)cc(-n2ncc3cc(C)c(C4CCN(CCS(C)(=O)=O)CC4)cc32)n1` [Example E174, (1R,4R)-5-(2-methoxy-6-(5-methyl-6-(1-(2-(methylsulfonyl)ethyl)piperidin-4-yl)-1H-indazol-1-yl)pyrimidin-4-yl)-2-oxa-5-azabicyclo[2.2.1]heptane], for which the IC50 in assay [1] is not above 0.01 µM; in assay [2] it was not above 0.1 µM.
Consider `Cc1nc(N2C[C@H]3C[C@@H]2CO3)cc(-n2ncc3cc(C)c(C4CCN(CCS(C)(=O)=O)CC4)cc32)n1` [Example E170, (1R,4R)-5-(2-methyl-6-(5-methyl-6-(1-(2-(methylsulfonyl)ethyl)piperidin-4-yl)-1H-indazol-1-yl)pyrimidin-4-yl)-2-oxa-5-azabicyclo[2.2.1]heptane], for which the IC50 in assay [2] is not above 0.1 µM.
`COc1nc(N2C[C@H]3C[C@@H]2CO3)cc(-n2ncc3cc(C)c(C4CCN(CCC(=O)O)CC4F)cc32)n1` (single isomer, unassigned) [Example E158]: the IC50 in assay [1] is not above 0.01 µM; in assay [2] it was not above 0.1 µM.
Take `Cc1nc(N2C[C@@]3(CO)C[C@@H]2CO3)cc(-n2ncc3cc(C)c(C4CCN([C@H]5CCOC5)CC4)cc32)n1` [Example E142, ((1R,4R)-5-(2-methyl-6-(5-methyl-6-(1-((S)-tetrahydrofuran-3-yl)piperidin-4-yl)-1H-indazol-1-yl)pyrimidin-4-yl)-2-oxa-5-azabicyclo[2.2.1]heptan-1-yl)methanol]: the IC50 in assay [2] is not above 0.1 µM.
Same read-out and setting: the same measure for `COc1nc(N2CC3CC2CO3)cc(-n2ncc3cc(C)c(C4CCN(C5COC5)CC4O)cc32)n1` (single isomer, unassigned) [Example E133]: not above 0.1 µM.
The same measure, in the same setting: the same measure for `Cc1nc(N2C[C@@H]3C[C@H]2CO3)cc(-n2ncc3cc(C)c(C4CCN(CCC(=O)O)CC4F)cc32)n1` (single isomer, unassigned) [Example E156]: not above 0.1 µM.
Consider `COc1nc(N2C[C@@H]3C[C@H]2CO3)cc(-n2ncc3cc(C)c(C4CCN(CCC(=O)O)CC4F)cc32)n1` (single isomer, unassigned) [Example E160], for which the figures for the IC50 in assay [1] and in assay [2] were not above 0.01 µM and not above 0.1 µM, respectively.
Consider `Cc1nc(N2CC3(CO)CC2CO3)cc(-n2ncc3cc(C)c(C4CCN(C5CCOC5)CC4)cc32)n1` (single isomer, unassigned) [Example E152, (5-(2-methyl-6-(5-methyl-6-(1-(tetrahydrofuran-3-yl)piperidin-4-yl)-1H-indazol-1-yl)pyrimidin-4-yl)-2-oxa-5-azabicyclo[2.2.1]heptan-1-yl)methanol], for which the IC50 in assay [2] was not above 0.1 µM.
